According to US20250129104A1, “7H-PYRROLO[2,3-D]PYRIMIDINES AND PREPARATION AND USES THEREOF” (BioSplice Therapeutics, Inc., priority 2021, published 2025):
pEC50: −log10 of the molar value.

The molecules below were run against recombinant DYRK1A kinase (Homo sapiens (Human), UniProt Q13627) (assay: DYRK1A kinase assay (Ser/Thr 18 peptide Z-lyte FRET assay)). Conditions: DYRK1A kinase activity; 15 μM ATP, 1 h room temperature; method text calls the value IC50.
Assay type: biochemical
Procedure, shortened: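 Recombinant human DYRK1A (0.25 μg/mL) with 15 μM ATP and 4 μM Ser/Thr 18 peptide, 1 h at room temperature with compound (11-point, 1:3, 10 μM top, duplicate). Z-lyte development 1 h, then coumarin/fluorescein FRET emission ratio converted to % phosphorylation; IC50 by non-linear regression.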

| Structure (SMILES) | pEC50 |
| --- | --- |
| COC[C@@H](C)Nc1nc(OC)c2c(-c3cnc4nc(C)n(CC(F)F)c4c3)c[nH]c2n1 [Compound 2271, (R)-5-(1-(2,2-Difluoroethyl)-2-methyl-1H-imidazo[4,5-b]pyridin-6-yl)-4-methoxy-N-(1-methoxypropan-2-yl)-7H-pyrrolo[2,3-d]pyrimidin-2-amine] | 6.95 |
| COc1nc(NC2CCC(F)(F)CC2)nc2[nH]cc(-c3cnc4nc(C)n(CC(F)F)c4c3)c12 [Compound 2272, N-(4,4-Difluorocyclohexyl)-5-(1-(2,2-difluoroethyl)-2-methyl-1H-imidazo[4,5-b]pyridin-6-yl)-4-methoxy-7H-pyrrolo[2,3-d]pyrimidin-2-amine] | 7.21 |
| COc1nc(NCC(C)(C)F)nc2[nH]cc(-c3ccc4nc(C)n(CC(F)F)c4n3)c12 [Compound 2276, 5-(3-(2,2-Difluoroethyl)-2-methyl-3H-imidazo[4,5-b]pyridin-5-yl)-N-(2-fluoro-2-methylpropyl)-4-methoxy-7H-pyrrolo[2,3-d]pyrimidin-2-amine] | 6.59 |
| COC[C@@H](C)Nc1nc(OC)c2c(-c3ccc4nc(C)n(CC(F)F)c4n3)c[nH]c2n1 [Compound 2278, (R)-5-(3-(2,2-Difluoroethyl)-2-methyl-3H-imidazo[4,5-b]pyridin-5-yl)-4-methoxy-N-(1-methoxypropan-2-yl)-7H-pyrrolo[2,3-d]pyrimidin-2-amine] | 6.00 |
| COc1nc(NC2CCC(F)(F)CC2)nc2[nH]cc(-c3ccc4nc(C)n(CC(F)F)c4n3)c12 [Compound 2279, N-(4,4-Difluorocyclohexyl)-5-(3-(2,2-difluoroethyl)-2-methyl-3H-imidazo[4,5-b]pyridin-5-yl)-4-methoxy-7H-pyrrolo[2,3-d]pyrimidin-2-amine] | 6.60 |
| COc1nc(N[C@H]2CC[C@@H](OC(F)F)CC2)nc2[nH]cc(-c3ccc4nc(C)n(CC(F)F)c4n3)c12 [Compound 2281, 5-(3-(2,2-Difluoroethyl)-2-methyl-3H-imidazo[4,5-b]pyridin-5-yl)-N-(cis-4-(difluoromethoxy)cyclohexyl)-4-methoxy-7H-pyrrolo[2,3-d]pyrimidin-2-amine] | 6.57 |
| COc1nc(NCC(C)(C)F)nc2[nH]cc(-c3ccc4nnn(C)c4c3)c12 [Compound 2283, N-(2-Fluoro-2-methylpropyl)-4-methoxy-5-(1-methyl-1H-benzo[d][1,2,3]triazol-6-yl)-7H-pyrrolo[2,3-d]pyrimidin-2-amine] | 7.32 |
| COc1nc(NC2CCC(F)(F)CC2)nc2[nH]cc(-c3ccc4nnn(C)c4c3)c12 [Compound 2284, N-(4,4-Difluorocyclohexyl)-4-methoxy-5-(1-methyl-1H-benzo[d][1,2,3]triazol-6-yl)-7H-pyrrolo[2,3-d]pyrimidin-2-amine] | 7.08 |
| [2H]C([2H])([2H])O[C@H]1CC[C@@H](Nc2nc(OC)c3c(-c4ccc5nnn(C)c5c4)c[nH]c3n2)CC1 [Compound 2285, 4-Methoxy-N-(cis-4-(methoxy-d3)cyclohexyl)-5-(1-methyl-1H-benzo[d][1,2,3]triazol-6-yl)-7H-pyrrolo[2,3-d]pyrimidin-2-amine] | 6.70 |
| COc1nc(N[C@H]2CC[C@@H](OC(F)F)CC2)nc2[nH]cc(-c3ccc4nnn(C)c4c3)c12 [Compound 2287, N-(cis-4-(Difluoromethoxy)cyclohexyl)-4-methoxy-5-(1-methyl-1H-benzo[d][1,2,3]triazol-6-yl)-7H-pyrrolo[2,3-d]pyrimidin-2-amine] | 6.62 |
| COc1nc(N[C@H]2CC[C@@H](OC(F)(F)F)CC2)nc2[nH]cc(-c3ccc4nnn(C)c4c3)c12 [Compound 2289, 4-Methoxy-5-(1-methyl-1H-benzo[d][1,2,3]triazol-6-yl)-N-(cis-4-(trifluoromethoxy)cyclohexyl)-7H-pyrrolo[2,3-d]pyrimidin-2-amine] | 5.83 |
| COC[C@@H](C)Nc1nc(OC)c2c(-c3ccc4nnn(CC(F)F)c4c3)c[nH]c2n1 [Compound 2294, (R)-5-(1-(2,2-Difluoroethyl)-1H-benzo[d][1,2,3]triazol-6-yl)-4-methoxy-N-(1-methoxypropan-2-yl)-7H-pyrrolo[2,3-d]pyrimidin-2-amine] | 7.63 |
| COc1nc(NCC(C)(C)F)nc2[nH]cc(-c3ccc4nccn4n3)c12 [Compound 2298, N-(2-Fluoro-2-methylpropyl)-5-(imidazo[1,2-b]pyridazin-6-yl)-4-methoxy-7H-pyrrolo[2,3-d]pyrimidin-2-amine] | 6.93 |
| COC[C@@H](C)Nc1nc(OC)c2c(-c3ccc4nccn4n3)c[nH]c2n1 [Compound 2300, (R)-5-(Imidazo[1,2-b]pyridazin-6-yl)-4-methoxy-N-(1-methoxypropan-2-yl)-7H-pyrrolo[2,3-d]pyrimidin-2-amine] | 6.64 |
| COc1nc(NCC(C)(C)F)nc2[nH]cc(-c3ccn4nccc4c3)c12 [Compound 2305, N-(2-Fluoro-2-methylpropyl)-4-methoxy-5-(pyrazolo[1,5-a]pyridin-5-yl)-7H-pyrrolo[2,3-d]pyrimidin-2-amine] | 7.66 |
| COc1nc(N[C@H]2CC[C@@H](OC)CC2)nc2[nH]cc(-c3ccn4nccc4c3)c12 [Compound 2306, 4-Methoxy-N-(cis-4-methoxycyclohexyl)-5-(pyrazolo[1,5-a]pyridin-5-yl)-7H-pyrrolo[2,3-d]pyrimidin-2-amine] | 6.77 |
| COc1nc(N[C@H]2CC[C@H](OC(F)F)CC2)nc2[nH]cc(-c3ccn4nccc4c3)c12 [Compound 2308, N-(trans-4-(Difluoromethoxy)cyclohexyl)-4-methoxy-5-(pyrazolo[1,5-a]pyridin-5-yl)-7H-pyrrolo[2,3-d]pyrimidin-2-amine] | 6.34 |
| COc1nc(N[C@@H]2CCCOC2)nc2[nH]cc(-c3ccn4nccc4c3)c12 [Compound 2314, (R)-4-Methoxy-5-(pyrazolo[1,5-a]pyridin-5-yl)-N-(tetrahydro-2H-pyran-3-yl)-7H-pyrrolo[2,3-d]pyrimidin-2-amine] | 7.76 |
| COc1nc(N[C@H]2CCCOC2)nc2[nH]cc(-c3ccn4nccc4c3)c12 [Compound 2315, (S)-4-Methoxy-5-(pyrazolo[1,5-a]pyridin-5-yl)-N-(tetrahydro-2H-pyran-3-yl)-7H-pyrrolo[2,3-d]pyrimidin-2-amine] | 6.92 |
| COc1nc(N[C@@H]2CCOC[C@H]2F)nc2[nH]cc(-c3ccn4nccc4c3)c12 [Compound 2316, N-((3S,4R)-3-Fluorotetrahydro-2H-pyran-4-yl)-4-methoxy-5-(pyrazolo[1,5-a]pyridin-5-yl)-7H-pyrrolo[2,3-d]pyrimidin-2-amine] | 6.80 |
| COc1nc(N[C@@H]2CCOC[C@@H]2F)nc2[nH]cc(-c3ccn4nccc4c3)c12 [Compound 2317, N-((3R,4R)-3-Fluorotetrahydro-2H-pyran-4-yl)-4-methoxy-5-(pyrazolo[1,5-a]pyridin-5-yl)-7H-pyrrolo[2,3-d]pyrimidin-2-amine] | 6.97 |
| COc1nc(N[C@@H]2CCOC[C@H]2O)nc2[nH]cc(-c3ccn4nccc4c3)c12 [Compound 2318, (3S,4R)-4-((4-Methoxy-5-(pyrazolo[1,5-a]pyridin-5-yl)-7H-pyrrolo[2,3-d]pyrimidin-2-yl)amino)tetrahydro-2H-pyran-3-ol] | 7.89 |
| COc1nc(N[C@@H]2CCOC[C@H]2OC)nc2[nH]cc(-c3ccn4nccc4c3)c12 [Compound 2319, 4-Methoxy-N-((3S,4R)-3-methoxytetrahydro-2H-pyran-4-yl)-5-(pyrazolo [1,5-a]pyridin-5-yl)-7H-pyrrolo[2,3-d]pyrimidin-2-amine] | 6.54 |
